This is an account of results in patent US20070281028A1, “Drug Delivery of a Cox Inhibitor from Embolic Agents” (Biocompatibles Uk Limited, priority 2004, published 2007).

Several values for one entry are separate records, joined by “and”; a condition that tells them apart may be missing. Equal values may be shown once.

A word on the Cmax: it is the highest concentration seen after dosing.

Data set [1] can be described thus: Loading (uptake) of drug into microspheres, from depletion of loading solution (UV/HPLC). It counts as physicochemical. As to conditions: for dose loaded per ml of hydrated microspheres: 5 ml of 100 mg/ml drug in ethanol added to 0.5 ml microspheres; for ketoprofen loaded/ml spheres, maximum loading: at 24 hours; for ketorolac loaded in microspheres: low AMPS 500-710 μm, loaded from water. How it is done:
A solution of 100 mg/ml flurbiprofen (Sigma) in ethanol was prepared. […] Low AMPS and high AMPS microspheres of size 500-710 μm were used and drug uptake monitored by UV. The samples were agitated on a roller mixer. Aliquots of supernatant were taken at 10, 20, 30, 60 mins and then at 2 hr, out to 24 hr. Uptake was calculated from the flurbiprofen remaining in solution. […] Microspheres of the present invention of each size loaded with 200 mg/ml flurbiprofen were placed in 250 ml water at 37° C.
The samples were agitated on a roller mnixer.
5 ml of the solution was added to 0.5 ml of low AMPS microspheres, of size 500-710 μm, and uptake monitored by HPLC. The samples were agitated on a roller mixer. Aliquots of supernatant were taken at 5, 10, 20 40 and 60 mins and then 24 hr.
The samples were agitated on a roller mixer. Samples of the supernatant were taken at 10, 20, 40, 60 mins and 24 hrs. […] Elution experiments were carried out on these microspheres (table 1). Microspheres were washed to determine quick burst in various media as in table 1. Then samples were placed in 10 ml solvent and absorbance read after 10 mins, a further 20 ml added and absorbance read after 10 mins, this was repeated up to 90 mls and elution was monitored up to 24 hrs (table 1).
Once prepared, the absorbances of the solutions were read by UV at 263 nm and dilutions were made to produce a standard curve. […] The vials were placed on a roller mixer at room temperature for the entire experiment. At a predetermined time points (0, 10, 20, 30 and 60 min) 100 μl was removed, diluted as necessary (1/200) and read at 263 nm. From the readings and the standard curve, the concentration of the solution at each time point was calculated. The amount of drug loaded onto the beads was measured by the depletion of the drug in solution when extracted with the beads. From the data the mg drug loaded per 1 ml of hydrated beads were calculated and the graph plotted.
Five samples of 1 ml of hydrated beads Low AMPS 700 to 1100 μm were used. For each sample, 1 ml of beads in phosphate buffered saline (PBS), measured with a 10 ml—glass cylinder, was transferred to a glass container and all the PBS was carefully removed with a glass Pasteur pipette. […] Once prepared, the absorbances of the solution and dilutions were read by UV at 263 nm to produce a standard curve. […] The vials were placed on the roller mixer at room temperature for the entire experiment. At predetermined time points (0, 20, 40, 60 and 120 min) 100 μl was removed, diluted as necessary (1/200) and read at 263 nm. From the readings and the standard curve, the concentration of the solution at each time point was calculated. The amount of drug loaded onto the beads was measured by the depletion of the drug in solution. From the data the mg drug loaded per 1 ml of beads were calculated and the graph plotted (FIG. 12).
Six samples of 1 ml of beads (700-1100 μm) were used. For each sample, 1 ml of beads in phosphate buffered saline (PBS), measured with a 10 ml glass cylinder, was transferred to a glass container and all the PBS was carefully removed with a glass Pasteur pipette. […] Once prepared, the absorbances of the solution and dilutions of the aqueous and of the alcoholic solutions were read by UV at 263 nm to produce standard curves. […] The vial was placed on the roller mixer at room temperature for the entire experiment. Once loaded, the remaining solution was removed, measured in a graduated measurement cylinder and read at 263 nm.

Data set [2] relates to HIF-1 alpha. The settings on record: COX-2 independent; cited from earlier work.
Data set [3] in a line: Release (elution) of drug from loaded microspheres in vitro. Format: physicochemical. As to conditions: for salicylic acid loaded that was released: 100 ml water, majority within the first 15 minutes.
For data set [4], the system named is HIF-2 alpha. As to conditions: COX-2 independent; cited from earlier work.
The test system of data set [5] is COX-2/COX-1. The settings on record: 0 = equal potency; above 0 more selective to COX-1, below 0 more selective to COX-2; cited from earlier work.
The nature of data set [6]: Plasma levels of ibuprofen after embolisation, intra-arterial or intravenous administration. The settings on record: sheep, after intra-arterial administration (IA) of 50 mg solution in both left and right artery. Format: in vivo.
For data set [7], the system named is colorectal cancer cell line. As to conditions: cited from earlier work.
Setting [8] is: high AMPS microspheres 500-710 μm.
Setting [9] is: in less than 30 minutes, low and high AMPS microspheres, 100 mg/ml in ethanol.
Setting [10] is: low AMPS microspheres 500-710 μm.
The mark [11] stands for this setting: 10 ml water, 37° C., released in the first 5 minutes.

`O=C(O)Cc1ccccc1Nc1c(Cl)cccc1Cl` [Diclofenac]: the “dose loaded per ml of hydrated microspheres” value in data set [1] (setting [8]) is 30 mg per ml of hydrated microsph; in data set [1] (setting [10]), 26 mg per ml of hydrated microsph. Also, in data set [1] (setting [9]), the “drug solution located in the microspheres” value (“drug solution located” for short) turned out to be 99%. Besides, the “HIF-1 alpha gene expression” value in data set [2] is on record as “inhibited”. In addition, in data set [3] (further in 48 hrs, microspheres loaded with 26 and 30 mg/ml, 250 ml water at 37° C.), the further release is 35%. Further, the release in data set [3] (in first 5 minutes, microspheres loaded with 26 and 30 mg/ml, 250 ml water at 37° C.) is reported as 18-26%. For the same compound, in data set [4], the “HIF-2 alpha gene expression” value is reported as “inhibited”.

Regarding `CC(C(=O)O)c1cccc(Oc2ccccc2)c1` (stereo not shown) [Fenoprofen], in data set [5], the “Log [IC80 ratio WHMA COX-2/COX-1)]” value is on record as 0.

As to `CC(C(=O)O)c1ccc(-c2ccccc2)c(F)c1` (stereo not shown) [Flurbiprofen], the “dose loaded per ml of hydrated microspheres” value in data set [1] (setting [8]) was 197 mg per ml of hydrated microsph; in data set [1] (setting [10]), 195 mg per ml of hydrated microsph. Also, the “drug solution located” value in data set [1] (setting [9]) was determined as 99%. The same compound yielded a further release in data set [3] (further in 2 days, microspheres loaded with 200 mg/ml, 250 ml water at 37° C.) of 5%. In data set [3] (in first 10 minutes, microspheres loaded with 200 mg/ml, 250 ml water at 37° C.), the release came to 30%.

On to `CC(C)Cc1ccc(C(C)C(=O)O)cc1` (stereo not shown) [Ibuprofen], for which the “Loading mg/ml Bead” value was 177.3 mg/ml Bead and 185.24 mg/ml Bead and 142.82 mg/ml Bead and 187.08 mg/ml Bead and 207.7 mg/ml Bead and 235.53 mg/ml Bead in data set [1] (2 ml loading solution (250 mg/ml in ethanol) to 1 ml low AMPS microspheres, listed as Ibuprofen Free Acid); 323.7 mg/ml Bead in data set [1] (3 ml loading solution (250 mg/ml in ethanol) to 1 ml low AMPS microspheres). Also, in data set [1] (loaded from ethanol, low AMPS beads 700 to 1100 μm, contraction then expels drug solution), the “time at which optimum loading is obtained” value is “around 20 mins”. In addition, the “doses loaded per ml of hydrated microspheres” value in data set [1] (low AMPS microspheres, 250 mg/ml in ethanol, range over series of experiments) is listed as 142-335 mg per ml of hydrated microspheres. In data set [6], this compound registered a Cmax of 32000 ng/mL. Also, the “Elution rate (range)” value in data set [3] (low AMPS microspheres, elution up to 90 mls, up to 24 hrs, over experiments of table 1) is listed as 20%-43%. For the same compound, in data set [3] (low AMPS microspheres, up to 24 hrs), the “Elution rate, average in most experiments” value was 25%. Moreover, the “Eluted Drug” value is 53 mg in data set [3] (quick burst/wash out solvent 50% ethanol, elution solvent 50% ethanol, up to 24 hrs); 60 mg in data set [3] (quick burst/wash out solvent 100% ethanol, elution solvent 0.9% Saline (pH 12), up to 24 hrs); 47 mg in data set [3] (quick burst/wash out solvent 100% ethanol, elution solvent 50% ethanol, up to 24 hrs); 47 mg and 83 mg and 57 mg in data set [3] (wash out and elution solvent 0.9% Saline (pH 12), 2 ml loading solution, up to 24 hrs, listed as Ibuprofen Free Acid); 77 mg in data set [3] (wash out and elution solvent 0.9% Saline (pH 12), 3 ml loading solution, up to 24 hrs). Moreover, the quick burst result in data set [3] (wash of loaded low AMPS microspheres in various media) is reported as “approximately 15%”. Further, in data set [4], the “HIF-2 alpha gene expression” value is listed as “inhibited”.

As for `CC(C(=O)O)c1cccc(C(=O)c2ccccc2)c1` (stereo not shown) [Ketoprofen], the “ketoprofen loaded/ml spheres, maximum loading” value is listed as “approximately 10 mg ketoprofen loaded/ml spheres” in data set [1] (high AMPS microspheres 500-710 μm, 30 mg/ml in ethanol) and “approximately 12 mg ketoprofen loaded/ml spheres” in data set [1] (low AMPS microspheres 500-710 μm, 30 mg/ml in ethanol). Further, the “time of maximum loading” value in data set [1] (low and high AMPS microspheres, 30 mg/ml in ethanol, monitored over 72 hours) turned out to be 24 h.

As for `O=C(c1ccccc1)c1ccc2n1CCC2C(=O)O` (stereo not shown) [Ketorolac], the “ketorolac loaded in microspheres” value in data set [1] (high loaded microspheres) turned out to be 27 mg/mL; in data set [1] (low loaded microspheres), 13 mg/mL. Besides, in data set [1] (in less than 10 minutes, low AMPS microspheres 500-710 μm, 50 mg/ml and 10 mg/ml in water), the “drug solution located” value amounted to 99%. In addition, the released in data set [3] (high AMPS loaded microspheres (so in the source), first 5 minutes, 250 ml water at 37° C.) turned out to be 43%; in data set [3] (high AMPS loaded microspheres (so in the source), in 1 hrs, 250 ml water at 37° C.) it was 90%; in data set [3] (low loaded microspheres, first 5 minutes, 250 ml water at 37° C.), 75%; in data set [3] (low loaded microspheres, in 1 hr, 250 ml water at 37° C.), 90%. The compound also registered a further slow release in data set [3] (high AMPS loaded microspheres (so in the source), further in the next 24 hrs) of 4%. Further, in data set [3] (low loaded microspheres, further in next 24 hrs), the further release came to 5%. The “HIF-2 alpha gene expression” value in data set [4] is given as “inhibited”.

`CS(=O)(=O)Nc1ccc([N+](=O)[O-])cc1OC1CCCCC1` [NS398]: the “expression of pro-angiogenic factors, including VEGF” value in data set [7] is reported as “diminished”. For the same compound, in data set [4], the “HIF-2 alpha gene expression” value was “inhibition”.

As to `COc1ccc2cc([C@H](C)C(=O)O)ccc2c1` [Naproxen], in data set [1] (low or high AMPS microspheres 500-710 μm, 30 mg/ml in ethanol, over 168 hours), the “naproxen taken up per ml of spheres” value is listed as 35-40 mg naproxen/ml of spheres. In data set [3] (setting [11]), the “drug released per ml of microspheres” value is on record as 6-9 mg/ml of microspheres and the “loaded drug released from the microspheres” value is 17-25%. In addition, in data set [3] (transfer to 10 ml fresh water after 17 hours, measured 7 hours more), the “further release after transfer to fresh water” value is listed as “did not bring about any further release”.

In the case of `O=C(O)c1cccnc1Nc1cccc(C(F)(F)F)c1` [Niflumic Acid], the “Log [IC80 ratio WHMA COX-2/COX-1)]” value in data set [5] is listed as 0.

For the compound `Cc1cc(CC(=O)O)n(C)c1C(=O)c1ccc(Cl)cc1` [Zomepirac], the “Log [IC80 ratio WHMA COX-2/COX-1)]” value in data set [5] is 0.

With `CC(C)Cc1ccc(C(C)C(=O)[O-])cc1.[Na+]` (stereo not shown) [ibuprofen sodium salt], the “time at which maximum loading is reached” value in data set [1] (loaded from ethanol 250 mg/ml, low AMPS beads 700-1100 μm, loading decreases afterwards) is listed as “about 20 minutes”. Moreover, the “loading levels, drug per ml of hydrated beads” value in data set [1] (range over six microsphere products, 2 ml of 100 mg/ml in water to 1 ml microspheres, 100 minute period) is 67 to 142 mg of drug per ml of hydrated beads.

With `O=C(O)c1ccccc1O` [salicylic acid], the “maximum salicylic acid taken up per ml of microspheres” value in data set [1] (low or high AMPS 500-710 μm, 5 mg/ml in ethanol, after 3-4 hours) is 3-4 mg salicylic acid/ml of microspheres. Also, the “salicylic acid taken up per ml of microspheres” value in data set [1] (low or high AMPS 500-710 μm, 5 mg/ml in ethanol, after 24 hours) is 2-3 mg/ml of microspheres. The “salicylic acid loaded that was released” value is recorded as “approximately 30%” in data set [3] (high AMPS microspheres, 37° C.) and “approximately 25%” in data set [3] (low AMPS microspheres, 37° C.). Besides, in data set [3] (transfer to 10 ml fresh water after 60 hours, measured 60 hours more), the “further release after transferral into fresh water” value is “did not bring about any further release”.
